Reference: patent US10858335B2 (Rigel Pharmaceuticals, Inc., priority 2014, dated 2020)

tested on: GDF8 signaling (p-SMAD-3 (Ser423/425)); assay: AlphaScreen SureFire SMAD3 (p-Ser423/425) assay, GDF8-stimulated cells (GDF pSMAD); format: cell-based; conditions: MPC11; GDF8-stimulated; p-SMAD3 AlphaScreen; read-out: GDF pSMAD (MPC11) (inhibition of GDF8 signaling)

IC50	Structure (SMILES)
0.119 µM	Nc1ncnc2ccc(-c3cccnc3-c3cc(Cl)c(F)cc3F)cc12 [compound 819, 6-(2-(5-Chloro-2,4-difluorophenyl)pyridin-3-yl)quinazolin-4-amine]

same assay, conditions: Mus musculus, MPC-11, GDF8-stimulated pSMAD3, MPC11; tested as the salt form given; read-out: GDF pSMAD (MPC11) (μM), inhibition of GDF8 signaling

IC50	Structure (SMILES)
3.29 µM	Nc1ncnc2ccc(-c3cccnc3-c3cc(OC(F)(F)F)ccc3Cl)cc12 [compound 1009, 6-(2-(2-chloro-5-(trifluoromethoxy)phenyl)pyridin-3-yl)quinazolin-4-amine]
1.46 µM	Cc1ccc(C)c(-c2ncccc2-c2ccc3ncnc(N)c3c2)c1 [compound 983, 6-(2-(2,5-dimethylphenyl)pyridin-3-yl)quinazolin-4-amine]
0.473 µM	Cc1cc(-c2ncccc2-c2ccc3ncsc3c2)c(C)cc1F [compound 1061]

same assay, conditions: Mus musculus, MPC-11, MPC11; GDF8-stimulated; p-SMAD3 AlphaScreen; read-out: GDF pSMAD (MPC11) (inhibition of GDF8 signaling)

IC50	Structure (SMILES)
4.06 µM	Cc1cccc(-c2ncccc2-c2ccc3ncc(N(C)C)n3c2)c1 [compound 552, N,N-Dimethyl-6-(2-(m-tolyl)pyridin-3-yl)imidazo[1,2-a]pyridin-3-amine]
11.9 µM	Cc1cc(-c2ncc(NC3CCCCC3O)cc2-c2ccc3nccnc3c2)ccc1F (centres unmarked) [compound 243, 2-((6-(4-Fluoro-3-methylphenyl)-5-(quinoxalin-6-yl)pyridin-3-yl)amino)cyclohexan-1-ol]
0.142 µM	Cc1cc(-c2ncccc2-c2ccc3[nH]ncc3c2)ccc1F [Compound 63, 5-(2-(4-Fluoro-3-methylphenyl)pyridin-3-yl)-1H-indazole]
1.18 µM	Cc1cccc(-c2ncccc2-c2cc3cn[nH]c3cc2C)c1 [Compound 174, 6-Methyl-5-(2-m-tolylpyridin-3-yl)-1H-indazole]
0.661 µM	FC(F)(F)c1cccc(-c2ncccc2-c2ccn3nccc3n2)c1 [compound 913, 5-(2-(3-(Trifluoromethyl)phenyl)pyridin-3-yl)pyrazolo[1,5-a]pyrimidine]
0.395 µM	Cn1cnc2ccc(-c3cccnc3-c3cccc(O)c3)cc2c1=O [compound 379, 6-(2-(3-Hydroxyphenyl)pyridin-3-yl)-3-methylquinazolin-4(3H)-one]
1.3 µM	Cc1cc(-c2ncccc2-c2ccc3c(=O)nc[nH]c3c2)ccc1F [compound 348, 7-(2-(4-Fluoro-3-methylphenyl)pyridin-3-yl)quinazolin-4(1H)-one]
23.1 µM	CCOc1cnc(-c2ccc(F)c(F)c2)c(-c2ccc3[nH]ncc3c2)c1 [Compound 7, 5-(5-Ethoxy-2-(3,4-difluorophenyl)pyridin-3-yl)-1H-indazole]
0.518 µM	CCCNC(=O)c1cnc2ccc(-c3cccnc3-c3ccc(F)c(C)c3)cn12 [compound 583, 6-(2-(4-Fluoro-3-methylphenyl)pyridin-3-yl)-N-propylimidazo[1,2-a]pyridine-3-carboxamide]
3.73 µM	Fc1ccc(-c2ncccc2-c2ccc3ncnc(Nc4ccncc4)c3c2)cc1Cl [compound 492, 6-(2-(3-Chloro-4-fluorophenyl)pyridin-3-yl)-N-(pyridin-4-yl)quinazolin-4-amine]
2.95 µM	Cc1cc(-c2ncccc2-c2ccn3c(C(=O)NCCN4CCOCC4)ncc3c2)ccc1F [compound 275, 7-(2-(4-Fluoro-3-methylphenyl)pyridin-3-yl)-N-(2-morpholinoethyl)imidazo[1,5-a]pyridine-3-carboxamide]
4.67 µM	COc1cnc(-c2ccc(F)c(C)c2)c(-c2ccn3ncnc3c2)c1 [compound 854, 7-(2-(4-Fluoro-3-methylphenyl)-5-methoxypyridin-3-yl)-[1,2,4]triazolo[1,5-a]pyridine]
0.242 µM	Fc1cc(F)c(-c2ncccc2-c2ccc3nccn3n2)cc1Cl [compound 938, 6-(2-(5-Chloro-2,4-difluorophenyl)pyridin-3-yl)imidazo[1,2-b]pyridazine]
0.226 µM	Cc1ccc(F)c(-c2ncccc2-c2ccc3ncsc3c2)c1 [compound 667, 6-(2-(2-Fluoro-5-methylphenyl)pyridin-3-yl)benzo[d]thiazole]

Second part, the compound before the results:

Structure (SMILES)	IC50
Cc1cc(-c2ncccc2-c2ccn3ncc(C(=O)NC4CC5CCC(C4)N5C)c3c2)ccc1F (racemic) [compound 714, rac-5-(2-(4-Fluoro-3-methylphenyl)pyridin-3-yl)-N-(8-methyl-8-azabicyclo[3.2.1]octan-3-yl)pyrazolo[1,5-a]pyridine-3-carboxamide]	5.66 µM
Cc1cnc2ccc(-c3cccnc3-c3cccc(C(F)(F)F)c3)cn12 [compound 530, 3-Methyl-6-(2-(3-(trifluoromethyl)phenyl)pyridin-3-yl)imidazo[1,2-a]pyridine]	0.625 µM
N#Cc1cccc(-c2ncccc2-c2cnc3[nH]ncc3c2)c1 [Compound 154, 3-(3-(1H-Pyrazolo[3,4-b]pyridin-5-yl)pyridin-2-yl)benzonitrile]	1.31 µM
Nc1ncnc2ccc(-c3cccnc3-c3cccc(Cl)c3Cl)cc12 [compound 498, 6-(2-(2,3-Dichlorophenyl)pyridin-3-yl)quinazolin-4-amine]	1.2 µM
Cc1cc(-c2ncccc2-c2ccc3ncc(C(=O)NCCC45CCCN4CCC5)n3c2)ccc1F [compound 803, 6-(2-(4-Fluoro-3-methylphenyl)pyridin-3-yl)-N-(2-(tetrahydro-1H-pyrrolizin-7a(5H)-yl)ethyl)imidazo[1,2-a]pyridine-3-carboxamide]	2.26 µM
Cc1cccc(-c2ncccc2-c2ccc3ncsc3c2)c1 [Compound 160, 6-(2-m-Tolylpyridin-3-yl)benzo[d]thiazole]	0.0843 µM
Cc1cc(-c2ncccc2-c2ccn3c(C(=O)NCCCN4CCCC4)ncc3c2)ccc1F [compound 278, 7-(2-(4-Fluoro-3-methylphenyl)pyridin-3-yl)-N-(3-(pyrrolidin-1-yl)propyl)imidazo[1,5-a]pyridine-3-carboxamide]	2.23 µM
FC(F)(F)c1cccc(-c2ncccc2-c2ccc3[nH]ncc3c2)c1 [Compound 197, 5-(2-(3-(Trifluoromethyl)phenyl)pyridin-3-yl)-1H-indazole]	0.359 µM
Cc1cc(-c2ncc(N3CCN(C)CC3)cc2-c2ccc3ncsc3c2)ccc1F [compound 319, 6-(2-(4-Fluoro-3-methylphenyl)-5-(4-methylpiperazin-1-yl)pyridin-3-yl)benzo[d]thiazole]	10.6 µM
Cc1cc(-c2ncc(NCc3cccc4cnccc34)cc2-c2ccc3ncsc3c2)ccc1F [compound 337, 5-(Benzo[d]thiazol-6-yl)-6-(4-fluoro-3-methylphenyl)-N-(isoquinolin-5-ylmethyl)pyridin-3-amine]	0.479 µM
Fc1ccc(-c2ncccc2-c2ccc3nccn3c2)cc1Cl [compound 687, 6-(2-(3-Chloro-4-fluorophenyl)pyridin-3-yl)imidazo[1,2-a]pyridine]	0.172 µM
Cc1cc(-c2ncccc2-c2ccc3nccn3n2)ccc1F [compound 934, 6-(2-(4-Fluoro-3-methylphenyl)pyridin-3-yl)imidazo[1,2-b]pyridazine]	0.41 µM
Nc1noc2cc(-c3cccnc3-c3cccc(Cl)c3)ccc12 [compound 798, 6-(2-(3-Chlorophenyl)pyridin-3-yl)benzo[d]isoxazol-3-amine]	2.62 µM
Cc1cc(-c2ncccc2-c2ccn3ncc(C(=O)NCCN(C)C)c3c2)ccc1F [compound 673, N-(2-(Dimethylamino)ethyl)-5-(2-(4-fluoro-3-methylphenyl)pyridin-3-yl)pyrazolo[1,5-a]pyridine-3-carboxamide]	0.375 µM
Fc1cc(F)c(-c2ncccc2-c2ccc3nccnc3n2)cc1Cl [compound 743, 6-(2-(5-Chloro-2,4-difluorophenyl)pyridin-3-yl)pyrido[2,3-b]pyrazine]	0.638 µM
c1cc(-c2ncccc2-c2ccc3ncsc3c2)cc(C2CC2)c1 [Compound 194, 6-(2-(3-Cyclopropylphenyl)pyridin-3-yl)benzo[d]thiazole]	0.149 µM
Fc1ccc(-c2ncccc2-c2ccc3ncnc(Nc4cccnc4)c3c2)cc1Cl [compound 490, 6-(2-(3-Chloro-4-fluorophenyl)pyridin-3-yl)-N-(pyridin-3-yl)quinazolin-4-amine]	6.51 µM
Cc1cccc(-c2ncccc2-c2ccc3ncc(C#N)n3c2)c1 [compound 558, 6-(2-(m-Tolyl)pyridin-3-yl)imidazo[1,2-a]pyridine-3-carbonitrile]	0.188 µM
FC(F)(F)c1cccc(-c2ncccc2-c2ccc3ncccc3n2)c1 [compound 538, 2-(2-(3-(Trifluoromethyl)phenyl)pyridin-3-yl)-1,5-naphthyridine]	0.474 µM
Cc1cc(-c2ncccc2-c2ccc3ncc(-c4ccc(S(N)(=O)=O)cc4)n3c2)ccc1F [compound 281, 4-(6-(2-(4-Fluoro-3-methylphenyl)pyridin-3-yl)imidazo[1,2-a]pyridin-3-yl)benzenesulfonamide]	1.3 µM
Cc1c(Cl)cccc1-c1ncccc1-c1ccc2ncnc(N)c2c1 [compound 464, 6-(2-(3-Chloro-2-methylphenyl)pyridin-3-yl)quinazolin-4-amine]	3.96 µM
COc1cc(-c2ncccc2-c2ccc3ncnc(N)c3c2)ccc1F [compound 474, 6-(2-(4-Fluoro-3-methoxyphenyl)pyridin-3-yl)quinazolin-4-amine]	0.429 µM
Nc1ncnc2ccc(-c3cccnc3-c3cccc(OCC4CC4)c3)cc12 [compound 483, 6-(2-(3-(Cyclopropylmethoxy)phenyl)pyridin-3-yl)quinazolin-4-amine]	0.82 µM
O=C1CCCN1CCCOc1ncnc2ccc(-c3cccnc3-c3ccc(F)c(Cl)c3)cc12 [compound 436, 1-(3-((6-(2-(3-Chloro-4-fluorophenyl)pyridin-3-yl)quinazolin-4-yl)oxy)propyl)pyrrolidin-2-one]	1.18 µM
Cc1cccc(-c2ncccc2-c2ccc3ncnc(N4CCOCC4)c3c2)c1 [compound 386, 4-(6-(2-(m-Tolyl)pyridin-3-yl)quinazolin-4-yl)morpholine]	2 µM
CC(C)Nc1ncnc2ccc(-c3cccnc3-c3ccc(F)c(Cl)c3)cc12 [compound 401, 6-(2-(3-Chloro-4-fluorophenyl)pyridin-3-yl)-N-isopropylquinazolin-4-amine]	5.89 µM
